Molecules are shown by their SMILES. Counter-ions that a name gives are not always drawn.

The values below come from US4533670A, “Anti-convulsant fluorenylalkylimidazole derivatives, compositions, and method of use” (Eli Lilly and Company, priority 1983, dated 1985).

One data set deals with extensor tonic convulsions. The data set can be described thus: Electroshock induced convulsion inhibition assay. The conditions noted are these: Mus musculus, po, 1 h; p.o. (gavage), mice; 60 minutes after administration (optimal time); 0.1 second, 50 milliampere corneal electroshock; read-out: ED50 (dose which inhibited extensor tonic convulsions in one half of the animals). The format is in vivo, Cox standard strain albino male mice. From the text: The compounds of Formula II are anticonvulsant agents with a high therapeutic ratio and long half-life and are therefore useful in the treatment and/or prevention of convulsions in mammals. In particular, the compounds are effective against tonic extensor seizures elicited by maximal electroshock and should therefore be useful for treating generalized tonic-clonic ("grand mal"), cortical focal, complex partial (temporal lobe epilepsy), simple partial (focal motor), and post-traumaticseizures in humans. […] In the electroshock induced convulsion inhibition assay, the compound to be tested was dissolved in water (5%--sufficient hydrochloric acid was added for those compounds which were not isolated as a salt in order to effect dissolution) and administered by gavage to each of three Cox standard strain albino male mice (18-24 g.) at the dose level being investigated. Sixty to 240 minutes after compound administration, the mice were subjected to a 0.1 second, 50 milliampere electroshock through corneal electrodes. The animals were examined and evaluated immediately after the electroshock for the occurrence of clonic, flexor tonic, or extensor tonic convulsions, or death and the ED50 was determined for each compound (for the particular time after administration of the compound) as the dose which inhibited the occurrence of extensor tonic convulsions in one half of the animals immediately after the electroshock. For comparison, 18 milliamperes was usually sufficient to produce extensor tonic convulsions in about half of the control animals; at 50 milliamperes, almost all control animals (receiving vehicle only) died. The test results are summarized in Table I as the ED50 's at the optimal time after compound administration.
What is called ED50 is the dose at which the effect has come halfway, by size or by number of responders. Regarding `Cl.O=C(Cn1ccnc1)c1cccc2c1-c1ccccc1C2` [Example 10, 1-(9H-fluoren-4-yl)-2-(1H-imidazol-1-yl)ethanone hydrochloride], the ED50 came to 44 mg/kg. Still for that read-out and setting: the same measure for `c1ccc2c(c1)Cc1cc(C3(CCn4ccnc4)OCCO3)ccc1-2` [Example 22, 1-(2-[2-(9H-fluoren-2-yl)-1,3-dioxolan-2-yl]ethyl)-1H-imidazole]: 26 mg/kg; for `OC(Cn1ccnc1)c1ccc2c(c1)Cc1ccccc1-2` (stereo not shown) [Example 14, 1-(9H-fluoren-2-yl)-2-(1H-imidazol-1-yl)-1-ethanol]: 22 mg/kg; for `Cc1cn(CC(=O)c2ccc3c(c2)Cc2ccccc2-3)cn1.Cl` [Example 3, 1-(9H-fluoren-2-yl)-2-(4-methyl-1H-imidazol-1-yl)ethanone hydrochloride]: 90 mg/kg. Same read-out and setting: for `O=C(OC(Cn1ccnc1)c1ccc2c(c1)Cc1ccccc1-2)c1ccccc1` (stereo not shown) [Example 16, 1-(9H-fluoren-2-yl)-2-(1H-imidazol-1-yl)-1-ethanol, benzoate ester hydrochloride] the value was 32 mg/kg; for `CC1(C)c2ccccc2-c2ccc(C(=O)Cn3ccnc3)cc21.Cl` [Example 6, 1-(9,9-Dimethyl-9H-fluoren-2-yl)-2-(1H-imidazol-1-yl)ethanone hydrochloride], 48 mg/kg. Same read-out and setting: for `CCSC(Cn1ccnc1)c1ccc2c(c1)Cc1ccccc1-2.Cl` (stereo not shown) [Example 17, 1-[2-(Ethylthio)-2-(9H-fluoren-2-yl)ethyl]-1H-imidazole hydrochloride] the value was 44 mg/kg; for `Cl.c1ccc2c(c1)Cc1cc(C3(Cn4ccnc4)OCCCO3)ccc1-2` [Example 21, 1-([2-(9H-fluoren-2-yl)-1,3-dioxan-2-yl]methyl)-1H-imidazole hydrochloride], 32 mg/kg. Consider `CCC(C(=O)c1ccc2c(c1)Cc1ccccc1-2)n1ccnc1.Cl` (stereo not shown) [Example 13, 2-(1H-imidazol-1-yl)-1-(9H-fluoren-2-yl)-1-butanone hydrochloride], for which the ED50 came out at 50 mg/kg. The same measure, in the same setting: for `Cl.O=C(CCn1ccnc1)c1ccc2c(c1)Cc1ccccc1-2` [Example 11, 1-(9H-fluoren-2-yl)-3-(1H-imidazol-1-yl)-1-propanone hydrochloride] the value was 19 mg/kg.

On to `OC(CCn1ccnc1)c1ccc2c(c1)Cc1ccccc1-2` (stereo not shown) [Example 15, 1-(9H-fluoren-2-yl)-3-(1H-imidazol-1-yl)-1-propanol], for which the ED50 came to 33 mg/kg. With `Cc1nccn1CC(=O)c1ccc2c(c1)Cc1ccccc1-2.Cl` [Example 1, 1-(9H-fluoren-2-yl)-2-(2-methyl-1H-imidazol-1-yl)ethanone hydrochloride], the ED50 worked out at 210 mg/kg.

The same data set, now with this note: Mus musculus, po, 1.5 h; p.o. (gavage), mice; 90 minutes after administration (optimal time); 0.1 second, 50 milliampere corneal electroshock; read-out: ED50 (dose which inhibited extensor tonic convulsions in one half of the animals).
Consider `CC(C(=O)c1ccc2c(c1)Cc1ccccc1-2)n1ccnc1.Cl` (stereo not shown) [Example 12, 2-(1H-imidazol-1-yl)-1-(9H-fluoren-2-yl)-1-propanone hydrochloride], for which the 50% effective dose (ED50) worked out at 35 mg/kg.

Staying with this data set, now noted: Mus musculus, po, 2 h; p.o. (gavage), mice; 120 minutes after administration (optimal time); 0.1 second, 50 milliampere corneal electroshock; read-out: ED50 (dose which inhibited extensor tonic convulsions in one half of the animals).
Turning to `Cl.c1ccc2c(c1)Cc1cc(C3(Cn4ccnc4)SCCS3)ccc1-2` [Example 23, 1-([2-(9H-fluoren-2-yl)-1,3-dithiolan-2-yl]methyl)-1H-imidazole hydrochloride], the ED50 turned out to be 41 mg/kg. On the same count and under the same terms, for `Cl.O=C(Cn1ccnc1)c1cccc2c1Cc1ccccc1-2` [Example 9, 1-(9H-fluoren-1-yl)-2-(1H-imidazol-1-yl)ethanone hydrochloride] the value was 20 mg/kg; for `CC1COC(Cn2ccnc2)(c2ccc3c(c2)Cc2ccccc2-3)O1` (stereo not shown) [Example 19, 1-([2-(9H-fluoren-2-yl)-4-methyl-1,3-dioxolan-2-yl]methyl)-1H-imidazole], 21 mg/kg. On the same count and under the same terms, the same measure for `Cl.O=C(Cn1ccnc1)c1ccc2c(c1)Cc1cc(Br)ccc1-2` [Example 4, 2-(1H-imidazol-1-yl)-1-(7-bromo-9H-fluoren-2-yl)ethanone hydrochloride]: 79 mg/kg; for `CC(O)(Cn1ccnc1)c1ccc2c(c1)Cc1ccccc1-2` (stereo not shown) [Example 24, 1-(1H-imidazol-1-yl)-2-(9H-fluoren-2-yl)-2-propanol]: 14 mg/kg; for `CC1(C)COC(Cn2ccnc2)(c2ccc3c(c2)Cc2ccccc2-3)OC1` [Example 20, 1-([2-(9H-fluoren-2-yl)-5,5-dimethyl-1,3-dioxan-2yl]methyl)-1H-imidazole]: 65 mg/kg. On the same count and under the same terms, the same measure for `Cc1ccc2c(c1)Cc1cc(C(=O)Cn3ccnc3)ccc1-2.Cl` [Example 7, 2-(1H-imidazol-1-yl)-1-(7-methyl-9H-fluoren-2-yl)ethanone hydrochloride]: 68 mg/kg; for `CC1c2ccccc2-c2ccc(C(=O)Cn3ccnc3)cc21.Cl` (stereo not shown) [Example 5, 2-(1H-imidazol-1-yl)-1-(9-methyl-9H-fluoren-2-yl)ethanone hydrochloride]: 33 mg/kg; for `CCc1nccn1CC(=O)c1ccc2c(c1)Cc1ccccc1-2` [Example 2, 2-(2-ethyl-1H-imidazol-1-yl)-1-(9H-fluoren-2-yl)ethanone]: 188 mg/kg.

Staying with this data set, now noted: Mus musculus, po, 3 h; p.o. (gavage), mice; 180 minutes after administration (optimal time); 0.1 second, 50 milliampere corneal electroshock; read-out: ED50 (dose which inhibited extensor tonic convulsions in one half of the animals).
As for `Cl.O=C(Cn1ccnc1)c1ccc2c(c1)Cc1ccccc1-2` [Example 8, 2-(1H-imidazol-1-yl)-1-(9H-fluoren-2-yl)ethanone hydrochloride], the ED50 was 25 mg/kg.

Still in this data set, the particulars now being: Mus musculus, po, 4 h; p.o. (gavage), mice; 240 minutes after administration (optimal time); 0.1 second, 50 milliampere corneal electroshock; read-out: ED50 (dose which inhibited extensor tonic convulsions in one half of the animals).
Take `c1ccc2c(c1)Cc1cc(C3(Cn4ccnc4)OCCO3)ccc1-2` [Example 18, 1-([2-(9H-fluoren-2-yl)-1,3-dioxolan-2-yl]methyl)-1H-imidazole]: the ED50 turned out to be 23 mg/kg.

The next data set deals with seizures.
Test: not given
The conditions noted are these: man; cited from earlier work.
For the compound `O=C1NC(=O)C(c2ccccc2)(c2ccccc2)N1` [phenytoin], the “plasma level at which seizures are controlled” value is at least 10 µg/mL.

System in the next data set: not given
Test: not given
The following applies: man, ataxia; cited from earlier work.
Regarding `O=C1NC(=O)C(c2ccccc2)(c2ccccc2)N1` [phenytoin], the “plasma level at which ataxia is obvious” value is 30 µg/mL.

Staying with this data set, now noted: man, lethargy; cited from earlier work.
With `O=C1NC(=O)C(c2ccccc2)(c2ccccc2)N1` [phenytoin], the “plasma level at which lethargy is apparent” value was “about 40 mcg./ml”.

The same data set, now with this note: man, nystagmus; cited from earlier work.
Regarding `O=C1NC(=O)C(c2ccccc2)(c2ccccc2)N1` [phenytoin], the “plasma level at which nystagmus is seen” value is “around 20 mcg./ml”.
